Experimental data published in patent US20220273752A1, “MODULATION OF DENDRITIC CELL FUNCTION BY THE PHOSPHOLIPID MESSENGER LPA” (Cornell University, priority 2019, published 2022).

Assays:
bone marrow-derived DCs = experiment: qPCR and Multiplex cytokine assays in BMDCs treated with LPA and Tunicamycin; assay type: cell-based, mouse
Procedure: FIG. 4A-4L graphically illustrate that induction of a set of highly tumorigenic and immunomodulatory genes is mainly PERK-dependent in LPA-exposed dendritic cells undergoing endoplasmic reticulum (ER) stress. Bone marrow-derived dendritic cells (BMDCs) from the indicated genotypes were left untreated or were incubated with LPA (100 μM), Tunicamycin (TM, 1 μg/ml) or with the combination of both for 6 hours. Gene expression was determined by qPCR. In all cases data, was normalized to endogenous Actb levels in each sample. These findings have further been confirmed using primary splenic dendritic cells and with an independent ER stressor, Thapsigargin (extensive data not shown). ***P<0.0005, ***P<0.0001. The serine/threonine-protein kinase/endoribonuclease inositol-requiring enzyme 1 α (IRE1α) in humans is encoded by the ERNI gene, and expression of the IRE1α protein is activated during endoplasmic reticulum (ER) stress. TM is a pharmacological ER stressor that causes protein glycosylation defects. FIG. 4A graphically illustrates expression of IL-1, in bone marrow-derived DCs from Ern1^f/f or Ern1^f/f Vav1-Cre (Ern1 knockout) mice with or without co-treatment by ER stressor Tunicamycin (TM) and/or physiological concentrations of LPA. […]

[1] = test system: bone marrow-derived dendritic cells (BMDCs); experiment: Antigen presentation: OVA-pulsed BMDCs co-cultured with CFSE-labeled OT-II T cells; assay type: cell-based, murine; settings: 100 μM LPA, 6 hours, then OVA 3 hours, OT-II T cell proliferation 3 days later
Procedure: FIG. 3A-3C illustrate that LPA inhibits the antigen-presenting capacity of dendritic cells. Bone marrow-derived dendritic cells (BMDCs) were exposed to 100 μM LPA for 6 hours and then pulsed with full-length ovalbumin (OVA) for 3 hours.
Cells were washed and co-cultured with OVA-specific OT-II T cells labeled with carboxyfluorescein succinimidyl ester (CFSE, which stains intracellular molecules, typically lysine residues). T cell proliferation was assessed by FACS 3 days later.
FIG. 3C graphically illustrates the division index of proliferating cells as determined by FlowJo analysis. ****P<0.0001.

dendritic cells = experiment: Genome-wide transcriptional profiling of dendritic cells by RNA-seq; assay type: cell-based, murine; settings: 100 μM LPA
Procedure: RNA was obtained from LPA-treated bone marrow-derived DCs (BMDCs) and RNA sequencing was performed. The RNA-sequencing data and Ingenuity Pathway Analyses (IPA) was performed on the RNA from LPA-treated bone marrow-derived DCs (BMDCs).

[2] = test system: bone marrow derived DCs (BMDCs); experiment: LPA receptor gene expression in BMDCs by RNA-seq; assay type: cell-based, murine; design: Lpar1 expression level / Lpar3 expression level / Lpar4 expression level / Lpar5 expression level / Lpar6 expression level: unit not given here; settings: RNA-seq relative expression
Procedure: FIG. 1 illustrates relative expression levels of genes encoding lysophosphatidic acid (LPA) receptors in the indicated murine dendritic cell (DC) populations, as determined by RNA-seq. Ovarian cancer DCs were sorted from tumor locations of mice bearing ID8-based metastatic ovarian carcinoma for 24 days.
Relative expression levels of genes encoding LPA receptors in the indicated dendritic cell (DC) populations was determined by RNA-seq.
FIG. 1 illustrates that murine bone marrow derived DCs (BMDCs) as well as DCs infiltrating ovarian tumors expressed significant levels of genes encoding various LPA receptors, particularly Lpar6 (see also Table 3).

lysophosphatidic acid [LPA]
production of IL-1b, IL-6, VEGF-a, LIF, M-CSF, GRO-a (IL-8) and MIP1-a (bone marrow-derived DCs; BMDCs co-treated with Tunicamycin (TM) and LPA (100 µM), Multiplex cytokine assays): significant PERK-dependent overproduction
expression of genes encoding IL-6, IL-1b, Arginase, Cox-2 and Vegf-A (bone marrow-derived DCs; ER-stressed DCs simultaneously exposed to LPA, qPCR): potent upregulation
antigen-presenting capacity of dendritic cells [1]: inhibits
number of genes demonstrating severe deregulation (dendritic cells): ~4,000 genes
Lpar1 expression level ([2]; BMDC + LPA (2 hr.)): 8.540
Lpar2 expression level ([2]; BMDC + LPA (2 hr.)): 0.303
Lpar3 expression level ([2]; BMDC + LPA (2 hr.)): 0.300
Lpar4 expression level ([2]; BMDC + LPA (2 hr.)): 0.040
Lpar5 expression level ([2]; BMDC + LPA (2 hr.)): 1.517
Lpar6 expression level ([2]; BMDC + LPA (2 hr.)): 62.313
Lpar1 expression level ([2]; BMDC + LPA (6 hr.)): 2.240
Lpar2 expression level ([2]; BMDC + LPA (6 hr.)): 0.353
Lpar3 expression level ([2]; BMDC + LPA (6 hr.)): 0.253
Lpar4 expression level ([2]; BMDC + LPA (6 hr.)): 0.007
Lpar5 expression level ([2]; BMDC + LPA (6 hr.)): 2.837
Lpar6 expression level ([2]; BMDC + LPA (6 hr.)): 72.007
